Experimental data reported in patent US10722501B2 (BAYER AKTIENGESELLSCHAFT, priority 2016, dated 2020).

Target: T1, recombinant full-length human prolyl endopeptidase (PREP) (Homo sapiens, UniProt P48147)
T1 construct: To recombinant full-length human prolyl endopeptidase (PREP, R&D-Systems, 4308-SE); purchased R&D-Systems 4308-SE
T1 sequence (P48147 1-710): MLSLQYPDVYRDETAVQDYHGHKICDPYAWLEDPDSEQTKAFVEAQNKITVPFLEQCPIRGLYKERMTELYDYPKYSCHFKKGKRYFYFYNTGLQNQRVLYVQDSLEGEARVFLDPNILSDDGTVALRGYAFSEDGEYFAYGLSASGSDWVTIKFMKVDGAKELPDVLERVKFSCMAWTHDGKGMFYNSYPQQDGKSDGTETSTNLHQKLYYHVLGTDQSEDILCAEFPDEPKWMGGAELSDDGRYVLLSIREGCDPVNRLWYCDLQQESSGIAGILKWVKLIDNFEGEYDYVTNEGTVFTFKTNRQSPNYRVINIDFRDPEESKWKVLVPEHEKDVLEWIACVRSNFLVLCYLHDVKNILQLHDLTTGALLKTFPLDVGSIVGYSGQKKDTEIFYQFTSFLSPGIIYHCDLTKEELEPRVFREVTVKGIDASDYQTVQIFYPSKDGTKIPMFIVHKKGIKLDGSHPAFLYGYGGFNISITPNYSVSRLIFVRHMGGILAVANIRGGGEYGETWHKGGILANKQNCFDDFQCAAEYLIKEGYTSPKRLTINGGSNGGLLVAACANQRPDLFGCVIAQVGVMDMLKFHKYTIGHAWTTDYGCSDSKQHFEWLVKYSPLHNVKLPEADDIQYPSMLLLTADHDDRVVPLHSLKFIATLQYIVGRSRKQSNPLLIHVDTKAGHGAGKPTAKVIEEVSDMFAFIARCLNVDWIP
Assay: Biochemical human prolyl endopeptidase (PREP) assay with fluorescently labelled substrate
Conditions: substrate Z-Gly-Pro-AMC 50 μM, 32° C., 60 min; some as mean values from multiple independent determinations
Outline: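 0.4 nM (final, example) recombinant PREP in pH 7.5 Tris buffer with EDTA, GSH, BSA and Brij-35; compounds at 1 nM to 30 μM. Reaction started with 50 μM Z-Gly-Pro-AMC and followed by fluorescence (ex 360/em 465 nm) at 32° C for 60 min. IC50 interpolated from percent activity based on initial slopes.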

IC50 | Compound
1.4 nM | O=C(C1CC(C(F)(F)F)Cc2nn(Cc3ccc(Cl)cn3)c(=O)n21)N1CC[C@H](F)C1 (mixture of isomers) [Example 314, (5RS,7RS)-2-[(5-Chloropyridin-2-yl)methyl]-5-{[(3S)-3-fluoropyrrolidin-1-yl]carbonyl}-7-(trifluoromethyl)-5,6,7,8-tetrahydro[1,2,4]triazolo[4,3-a]pyridin-3(2H)-one]
141 nM | Cc1ccc(Cn2nc3n(c2=O)[C@H](C(=O)N2CCC[C@H]2C)CCC3)cc1 [Example 132, (5S)-2-(4-Methylbenzyl)-{[(2R)-2-methylpyrrolidin-1-yl]carbonyl}-5,6,7,8-tetrahydro[1,2,4]triazolo[4,3-a]pyridin-3(2H)-one]
5.4 nM | Cn1nc(Cn2nc3n(c2=O)[C@H](C(=O)N2CC(F)(F)C2)CCC3)c2cccnc21 [Example 415, (5S)-5-[(3,3-Difluoroazetidin-1-yl)carbonyl]-2-[(1-methyl-1H-pyrazolo[3,4-b]pyridin-3-yl)methyl]-5,6,7,8-tetrahydro[1,2,4]triazolo[4,3-a]pyridin-3(2H)-one]
42 nM | O=C(C1CCCc2nn(Cc3ccccn3)c(=O)n21)N1CCCC1 (racemic) [Example 22, (5RS)-2-(Pyridin-2-ylmethyl)-5-(pyrrolidin-1-ylcarbonyl)-5,6,7,8-tetrahydro[1,2,4]triazolo[4,3-a]pyridin-3(2H)-one]
10 nM | O=C([C@@H]1CCCc2nn(Cc3ccc(C(F)(F)F)nc3)c(=O)n21)N1CC(F)C(F)C1 (single isomer, unassigned) [Example 554]
79 nM | CC1Cc2nn(Cc3ccc(C(F)(F)F)nc3)c(=O)n2C(C(=O)N2CC(O)C2)C1 (racemic) [Example 134, (5RS,7RS)-5-[(3-Hydroxyazetidin-1-yl)carbonyl]-7-methyl-2-{[6-(trifluoromethyl)pyridin-3-yl]methyl}-5,6,7,8-tetrahydro[1,2,4]triazolo[4,3-a]pyridin-3(2H)-one]
19 nM | O=C(C1C(C(F)(F)F)CCc2nn(Cc3ccc(Cl)cn3)c(=O)n21)N1C[C@@H](F)[C@@H](F)C1 (mixture of isomers) [Example 300, (5RS,6RS)-2-[(5-Chloropyridin-2-yl)methyl]-5-{[(3R,4S)-3,4-difluoropyrrolidin-1-yl]carbonyl}-6-(trifluoromethyl)-5,6,7,8-tetrahydro[1,2,4]triazolo[4,3-a]pyridin-3(2H)-one]
1.03 nM | O=C([C@@H]1CCCc2nn(Cc3ccc(Cl)nc3)c(=O)n21)N1CCC2CC21 (single isomer, unassigned) [Example 198]
34 nM | COc1ccc(Cn2nc3n(c2=O)[C@H](C(=O)N2CC(F)(F)C2)CCC3)nc1 [Example 532, (5S)-5-[(3,3-Difluoroazetidin-1-yl)carbonyl]-2-[(5-methoxypyridin-2-yl)methyl]-5,6,7,8-tetrahydro[1,2,4]triazolo[4,3-a]pyridin-3(2H)-one]
2.3 nM | O=C(C1CC(C(F)(F)F)Cc2nn(Cc3ncc(Cl)cc3F)c(=O)n21)N1C[C@@H](F)[C@@H](F)C1 (single isomer, unassigned) [Example 267]
6.3 nM | O=C(C1CCc2nn(Cc3ccc(Cl)nc3)c(=O)n21)N1C[C@@H](F)[C@@H](F)C1 (mixture of isomers) [Example 172, (5RS)-2-[(6-Chloropyridin-3-yl)methyl]-5-{[(3R,4S)-3,4-difluoropyrrolidin-1-yl]carbonyl}-2,5,6,7-tetrahydro-3H-pyrrolo[2,1-c][1,2,4]triazol-3-one]
145 nM | Cc1ccc(Cn2nc3n(c2=O)C(C(=O)N2CC(=O)C2)CCC3)cc1 (racemic) [Example 133, (5RS)-2-(4-Methylbenzyl)-5-[(3-oxoazetidin-1-yl)carbonyl]-5,6,7,8-tetrahydro[1,2,4]triazolo[4,3-a]pyridin-3(2H)-one]
2.3 nM | O=C([C@@H]1CCCc2nn(Cc3csc(C(F)(F)F)n3)c(=O)n21)N1CC[C@H](F)C1 [Example 365, (5S)-5-{[(3S)-3-Fluoropyrrolidin-1-yl]carbonyl}-2-{[2-(trifluoromethyl)-1,3-thiazol-4-yl]methyl}-5,6,7,8-tetrahydro[1,2,4]triazolo[4,3-a]pyridin-3(2H)-one]
1.5 nM | O=C(C1CC(C(F)(F)F)Cc2nn(Cc3ncc(C(F)(F)F)cc3Cl)c(=O)n21)N1CCC(F)(F)C1 (single isomer, unassigned) [Example 565, (5RS,7RS)-2-{[3-Chloro-5-(trifluoromethyl)pyridin-2-yl]methyl}-5-[(3,3-difluoropyrrolidin-1-yl)carbonyl]-7-(trifluoromethyl)-5,6,7,8-tetrahydro[1,2,4]triazolo[4,3-a]pyridin-3(2H)-one]
85 nM | O=C(C1C(C(F)(F)F)CCc2nn(Cc3ncc(Cl)cc3F)c(=O)n21)N1C[C@@H](F)[C@@H](F)C1 (single isomer, unassigned) [Example 293]
33.5 nM | O=C([C@@H]1CCCc2nn(Cc3nnc(C(F)(F)F)o3)c(=O)n21)N1C[C@@H](F)[C@@H](F)C1 [Example 543, (5S)-5-{[(3R,4S)-3,4-Difluoropyrrolidin-1-yl]carbonyl}-2-{[5-(trifluoromethyl)-1,3,4-oxadiazol-2-yl]methyl}-5,6,7,8-tetrahydro[1,2,4]triazolo[4,3-a]pyridin-3(2H)-one]
1.75 nM | COc1ccc(Cn2nc3n(c2=O)C(C(=O)N2CCC(F)(F)C2)CCC3)cc1Cl (racemic) [Example 49, (5RS)-2-(3-Chloro-4-methoxybenzyl)-5-[(3,3-difluoropyrrolidin-1-yl)carbonyl]-5,6,7,8-tetrahydro[1,2,4]triazolo[4,3-a]pyridin-3(2H)-one]
0.43 nM | O=C([C@@H]1CCCc2nn(Cc3ncc(F)cc3Cl)c(=O)n21)N1CC[C@H](F)C1 [Example 560, (5S)-2-[(3-Chloro-5-fluoropyridin-2-yl)methyl]-5-{[(3S)-3-fluoropyrrolidin-1-yl]carbonyl}-5,6,7,8-tetrahydro[1,2,4]triazolo[4,3-a]pyridin-3(2H)-one]
1.17 nM | CC1Cc2nn(Cc3ccc(C(F)(F)F)nc3)c(=O)n2C(C(=O)N2CC[C@H](F)C2)C1 (mixture of isomers) [Example 136, (5RS,7RS)-5-{[(3S)-3-Fluoropyrrolidin-1-yl]carbonyl}-7-methyl-2-{[6-(trifluoromethyl)pyridin-3-yl]methyl}-5,6,7,8-tetrahydro[1,2,4]triazolo[4,3-a]pyridin-3(2H)-one]
2.6 nM | O=C([C@@H]1CCCc2nn(Cc3cc(C(F)(F)F)c(Cl)cn3)c(=O)n21)N1CC(F)C1 [Example 375, (5S)-2-{[5-Chloro-4-(trifluoromethyl)pyridin-2-yl]methyl}-5-[(3-fluoroazetidin-1-yl)carbonyl]-5,6,7,8-tetrahydro[1,2,4]triazolo[4,3-a]pyridin-3(2H)-one]
4.2 nM | O=C(C1CC(C(F)(F)F)Cc2nn(Cc3ccc(Cl)nc3)c(=O)n21)N1CC(F)C1 (single isomer, unassigned) [Example 240, (5RS,7RS)-2-[(6-Chloropyridin-3-yl)methyl]-5-[(3-fluoroazetidin-1-yl)carbonyl]-7-(trifluoromethyl)-5,6,7,8-tetrahydro[1,2,4]triazolo[4,3-a]pyridin-3(2H)-one]
0.61 nM | COc1ncc(Cn2nc3n(c2=O)[C@H](C(=O)N2CCC(F)(F)C2)CCC3)cc1Cl [Example 443, (5S)-2-[(5-Chloro-6-methoxypyridin-3-yl)methyl]-5-[(3,3-difluoropyrrolidin-1-yl)carbonyl]-5,6,7,8-tetrahydro[1,2,4]triazolo[4,3-a]pyridin-3(2H)-one]
7.7 nM | O=C([C@@H]1CCCc2nn(Cc3ncc(F)cc3F)c(=O)n21)N1CC(F)C1 [Example 410, (5S)-2-[(3,5-Difluoropyridin-2-yl)methyl]-5-[(3-fluoroazetidin-1-yl)carbonyl]-5,6,7,8-tetrahydro[1,2,4]triazolo[4,3-a]pyridin-3(2H)-one]
0.77 nM | O=C([C@@H]1CCCc2nn(Cc3ccc(F)c(Cl)c3)c(=O)n21)N1CCC(F)(F)C1 [Example 455, (5S)-2-(3-Chloro-4-fluorobenzyl)-5-[(3,3-difluoropyrrolidin-1-yl)carbonyl]-5,6,7,8-tetrahydro[1,2,4]triazolo[4,3-a]pyridin-3(2H)-one]
37 nM | O=C(C1C(C(F)(F)F)CCc2nn(Cc3ncc(Cl)cc3F)c(=O)n21)N1C[C@@H](F)[C@@H](F)C1 (single isomer, unassigned) [Example 292]
0.995 nM | COc1ccc(Cn2nc3n(c2=O)[C@H](C(=O)N2C[C@@H](F)[C@@H](F)C2)CCC3)cn1 [Example 431, (5S)-5-{[(3R,4S)-3,4-Difluoropyrrolidin-1-yl]carbonyl}-2-[(6-methoxypyridin-3-yl)methyl]-5,6,7,8-tetrahydro[1,2,4]triazolo[4,3-a]pyridin-3(2H)-one]
